Results from ChEMBL document CHEMBL5046252, “Integrin-Mediated Targeted Cancer Therapy Using c(RGDyK)-Based Conjugates of Gemcitabine” (J Med Chem, 2022).
Active and inactive are the calls of the source. The rule behind the calls is not given here.

Legend:
WM 266-4 [1] = experiment: Inhibition of cell growth in human WM266-4 cells measured after 24 hrs; type: functional, cell-based; details: WM 266-4, 24 h
[2] = Drug metabolism in human plasma assessed as gemcitabine release at 1 ug/ml by LC-MS/MS analysis; type: ADME, cell-free; details: dose 1 µg/ml
WM 266-4 [3] = experiment: Induction of apoptosis in human WM266-4 cells assessed as late apoptotic cells at 1 uM measured after 72 hrs by Annexin V-FITC and PI staining based flow cytometry analysis (reference value: 0.5%); type: functional
WM 266-4 [4] = experiment: Induction of apoptosis in human WM266-4 cells assessed as viable cells at 1 uM measured after 72 hrs by Annexin V-FITC and PI staining based flow cytometry analysis (reference value: 98.2%); type: functional; details: read-out: Activity
[5] = Chemostability of the compound in phosphate buffer assessed as compound hydrolysis at pH 7.4 measured after 7 hrs by LC-MS analysis; type: physicochemical; details: pH 7.4, 7 h
WM 266-4 [6] = experiment: Inhibition of cell invasiveness in human WM266-4 cells at 10 uM measured after 4 hrs by DiffQuick staining based light microscopic analysis; type: functional
A549 = experiment: Antiproliferative activity against human A549 cells assessed as inhibition of cell growth measured after 72 hrs by MTT assay; type: functional, cell-based; details: A549, 72 h
[7] = Chemostability of the compound in acetate buffer at pH 5.2 measured upto 48 hrs by LC-MS analysis; type: physicochemical; details: pH 5.2, 48 h
[8] = Chemostability of the compound in phosphate buffer assessed as residual parent compound concentration at pH 7.4 measured after 24 hrs by LC-MS analysis; type: physicochemical; details: read-out: Activity
[9] = Drug metabolism in human plasma assessed as release of 2',2'-difluorodeoxyuridine metabolite at 1 ug/ml by LC-MS/MS analysis; type: ADME, cell-free; details: dose 1 µg/ml
WM 266-4 [10] = experiment: Induction of apoptosis in human WM266-4 cells assessed as necrotic cells at 1 uM measured after 72 hrs by Annexin V-FITC and PI staining based flow cytometry analysis (reference value: […]); type: functional
WM 266-4 [11] = experiment: Induction of apoptosis in human WM266-4 cells assessed as early apoptotic cells at 1 uM measured after 72 hrs by Annexin V-FITC and PI staining based flow cytometry analysis (reference value: 0.2%); type: functional
WM 266-4 [12] = experiment: Inhibition of clonogenicity in human WM266-4 cells assessed as proportion of cell colonies at 1 uM measured after 72 hrs relative to control; type: functional; set-up: scale not given: the % may be the effect or the level left
[13] = Drug metabolism in C57BL/6 naive mouse blood assessed as release of gemcitabine metabolite at 10 mg/kg, ip measured after 0.5 hrs by LC-MS/MS analysis; type: ADME, organism-based; details: in vivo
[14] = Drug metabolism in human A549 cells assessed as gemcitabine metabolite formation at 10 uM measured per 2 x 10^5 cells after 24 hrs by LC-MS/MS analysis; type: ADME, cell-based; details: a549, 24 h
[15] = Drug uptake in C57BL/6 naive mouse blood at 10 mg/kg, ip measured after 24 hrs by LC-MS/MS analysis; type: ADME, organism-based; details: C57BL/6, mouse, whole blood, read-out: Drug uptake
[16] = Drug uptake in C57BL/6 naive mouse blood at 10 mg/kg, ip measured after 6 hrs by LC-MS/MS analysis; type: ADME, organism-based; details: C57BL/6, mouse, whole blood, read-out: Drug uptake
[17] = Drug metabolism in C57BL/6 naive mouse blood assessed as release of gemcitabine metabolite at 10 mg/kg, ip measured after 0.25 hrs by LC-MS/MS analysis; type: ADME, organism-based; details: in vivo
[18] = Chemostability of the compound in phosphate buffer buffer at pH 7.4 measured upto 48 hrs by LC-MS analysis; type: physicochemical; details: pH 7.4, 48 h
[19] = Drug metabolism in C57BL/6 naive mouse blood assessed as release of gemcitabine metabolite at 10 mg/kg, ip measured after 4 hrs by LC-MS/MS analysis; type: ADME, organism-based; details: in vivo
[20] = Drug metabolism in C57BL/6 naive mouse blood assessed as release of gemcitabine metabolite at 10 mg/kg, ip measured after 6 hrs by LC-MS/MS analysis; type: ADME, organism-based; details: in vivo
[21] = Drug metabolism in C57BL/6 naive mouse blood assessed as release of gemcitabine metabolite at 10 mg/kg, ip measured after 8 hrs by LC-MS/MS analysis; type: ADME, organism-based; details: in vivo
[22] = Drug uptake in C57BL/6 naive mouse blood at 10 mg/kg, ip measured after 0.25 hrs by LC-MS/MS analysis; type: ADME, organism-based; details: C57BL/6, mouse, whole blood, read-out: Drug uptake
[23] = Drug uptake in C57BL/6 naive mouse blood at 10 mg/kg, ip measured after 0.5 hrs by LC-MS/MS analysis; type: ADME, organism-based; details: C57BL/6, mouse, whole blood, read-out: Drug uptake
[24] = Drug uptake in C57BL/6 naive mouse blood at 10 mg/kg, ip measured after 2 hrs by LC-MS/MS analysis; type: ADME, organism-based; details: C57BL/6, mouse, whole blood, read-out: Drug uptake
[25] = Drug metabolism in C57BL/6 naive mouse blood assessed as release of gemcitabine metabolite at 10 mg/kg, ip measured after 24 hrs by LC-MS/MS analysis; type: ADME, organism-based; details: in vivo
[26] = Stability of the compound in C57BL/6 naive mouse blood at 10 mg/kg, ip measured for 1 hr by LC-MS/MS analysis; type: ADME, organism-based; details: in vivo
[27] = Drug metabolism in C57BL/6 naive mouse blood assessed as release of gemcitabine metabolite at 10 mg/kg, ip measured after 1 hr by LC-MS/MS analysis; type: ADME, organism-based; details: in vivo
[28] = Stability of the compound in human A549 cells assessed as parent compound concentration at 10 uM measured per 2 x 10^6 cells after 4 hrs by LC-MS/MS analysis; type: ADME, cell-based; details: a549, 4 h
[29] = Drug uptake in C57BL/6 naive mouse blood at 10 mg/kg, ip measured after 8 hrs by LC-MS/MS analysis; type: ADME, organism-based; details: C57BL/6, mouse, whole blood, read-out: Drug uptake
[30] = Drug uptake in human A549 cells at 20 uM in presence of alphavbeta3 integrin […]-cilengitide incubated for 2 hrs by LC-MS analysis; type: cell-based; details: a549, 2 h
[31] = Drug metabolism in C57BL/6 naive mouse blood assessed as release of gemcitabine metabolite at 10 mg/kg, ip measured after 2 hrs by LC-MS/MS analysis; type: ADME, organism-based; details: in vivo
[32] = Drug uptake in human A549 cells at 20 uM in presence of alphavbeta3 integrin […], c(RGDyK) incubated for 2 hrs by LC-MS analysis; type: cell-based; details: a549, 2 h
[33] = Stability of the compound in human plasma at 1 ug/ml measured for 4 hrs by LC-MS/MS analysis; type: ADME, cell-free; details: at 1 µg/mL
[34] = Drug metabolism in human A549 cells assessed as 2',2'-difluorodeoxyuridine metabolite concentration at 10 uM measured per 2X10^5 cells after 24 hrs by LC-MS/MS analysis; type: ADME, cell-based; details: a549, 24 h
[35] = Stability of the compound in DMEM-F12 medium measured for 70 hrs by LC-MS/MS analysis; type: physicochemical
[36] = Drug uptake in C57BL/6 naive mouse blood at 10 mg/kg, ip measured after 4 hrs by LC-MS/MS analysis; type: ADME, organism-based; details: C57BL/6, mouse, whole blood, read-out: Drug uptake
[37] = Drug uptake in C57BL/6 naive mouse blood at 10 mg/kg, ip measured after 1 hr by LC-MS/MS analysis; type: ADME, organism-based; details: C57BL/6, mouse, whole blood, read-out: Drug uptake

In the case of `N=C(N)NCCC[C@@H]1NC(=O)[C@H](CCCCNC(=O)OCCSSCCOC(=O)OC[C@H]2O[C@@H](n3ccc(N)nc3=O)C(F)(F)[C@@H]2O)NC(=O)[C@@H](Cc2ccc(O)cc2)NC(=O)[C@H](CC(=O)O)NC(=O)CNC1=O`, the IC50 (WM 266-4 [1]) is reported as over 100000 nM, the Drug metabolism [2] is reported as “Metabolite_Detected” and the Activity (WM 266-4 [3]) is reported as 2.2%. For the same molecule, the viability at 1 µM (WM 266-4 [4]) was 66.4%, the Stability [5] was “Unstable” and the inhibition (WM 266-4 [6]) was “Active”. For the same molecule, the IC50 (A549) was 30.6 nM, the Stability [7] was “Stable” and the remaining at 24 h [8] was 85%. The Drug metabolism [9] was “Metabolite_Detected”, the Activity (WM 266-4 [10]) was 31.1% and the Activity (WM 266-4 [11]) was 0.3%. For the same molecule, the Activity (WM 266-4 [12]) was 4.9%.
`N=C(N)NCCC[C@@H]1NC(=O)[C@H](CCCCNC(=O)OC[C@H]2O[C@@H](n3ccc(N)nc3=O)C(F)(F)[C@@H]2O)NC(=O)[C@@H](Cc2ccc(O)cc2)NC(=O)[C@H](CC(=O)O)NC(=O)CNC1=O` showed an IC50 (WM 266-4 [1]) of 57600 nM, a Drug metabolism [13] of 33 nM and a Drug metabolism [14] of under 0.05 ng. It also gave a concentration at 24 h [15] of 14 nM, a concentration at 6 h [16] of 168 nM and a Drug metabolism [17] of 748 nM. The Activity (WM 266-4 [3]) was 4.8%, the Stability [18] was “Stable” and the Drug metabolism [19] was 7 nM. For the same molecule, the viability at 1 µM (WM 266-4 [4]) was 72.3%, the Drug metabolism [20] was 11 nM and the inhibition (WM 266-4 [6]) was “Active”. For the same molecule, the Drug metabolism [21] was 40 nM, the concentration at 0.25 h [22] was 6660 nM and the IC50 (A549) was 678 nM. It also gave a concentration at 0.5 h [23] of 8470 nM, a concentration at 2 h [24] of 547 nM and a Drug metabolism [25] of 3 nM. For the same molecule, the Stability [26] was “Stable”, the Stability [7] was “Stable” and the Drug metabolism [27] was 46 nM. The Drug uptake [28] was 5 ng, the concentration at 8 h [29] was 11 nM and the Drug uptake [30] was “Not Active”. The Drug metabolism [31] was 6 nM, the Drug uptake [32] was “Not Active” and the Activity (WM 266-4 [10]) was 21.7%. For the same molecule, the Stability [33] was “Stable”, the Drug metabolism [34] was 4 ng and the Activity (WM 266-4 [11]) was 1.3%. The Stability [35] was “Stable”, the concentration at 4 h [36] was 38 nM and the Activity (WM 266-4 [12]) was 8.3%. It also gave a concentration at 1 h [37] of 3320 nM.
For `N=C(N)NCCC[C@@H]1NC(=O)[C@H](CCCCN)NC(=O)[C@@H](Cc2ccc(O)cc2)NC(=O)[C@H](CC(=O)O)NC(=O)CNC1=O`, the inhibition (WM 266-4 [6]) was “Active”.
Molecule `Nc1ccn([C@@H]2O[C@H](CO)[C@@H](O)C2(F)F)c(=O)n1` [GEMCITABINE] has an IC50 (WM 266-4 [1]) of 17800 nM, an Activity (WM 266-4 [3]) of 5.1% and a viability at 1 µM (WM 266-4 [4]) of 78.3%. The IC50 (A549) was 18.8 nM, the Activity (WM 266-4 [10]) was 12.4% and the Activity (WM 266-4 [11]) was 4.1%. The Activity (WM 266-4 [12]) was 46.6%.
